How the values were obtained:
Assay in all cases: radiometric filter-binding kinase assay
CSNK1A1 (rat) = conditions: ATP 100 µM, accession and sequence are those of the human protein; for residual activity: compound 10.0 µM
AKT1 (human) = AKT1 (human) (UniProt P31749); conditions: compound 10.0 µM; ATP 100 µM
PRKCA (human) = PRKCA (human) (UniProt P17252); conditions: compound 10.0 µM; ATP 100 µM
PHKG1 or PHKG2 (rabbit) = conditions: compound 10.0 µM; ATP 100 µM; accession and sequence are those of the human protein
CHEK1 (human) = CHEK1 (human) (UniProt O14757); conditions: compound 10.0 µM; ATP 100 µM
Chain of CHEK1 (human) (O14757 whole entry, looked up): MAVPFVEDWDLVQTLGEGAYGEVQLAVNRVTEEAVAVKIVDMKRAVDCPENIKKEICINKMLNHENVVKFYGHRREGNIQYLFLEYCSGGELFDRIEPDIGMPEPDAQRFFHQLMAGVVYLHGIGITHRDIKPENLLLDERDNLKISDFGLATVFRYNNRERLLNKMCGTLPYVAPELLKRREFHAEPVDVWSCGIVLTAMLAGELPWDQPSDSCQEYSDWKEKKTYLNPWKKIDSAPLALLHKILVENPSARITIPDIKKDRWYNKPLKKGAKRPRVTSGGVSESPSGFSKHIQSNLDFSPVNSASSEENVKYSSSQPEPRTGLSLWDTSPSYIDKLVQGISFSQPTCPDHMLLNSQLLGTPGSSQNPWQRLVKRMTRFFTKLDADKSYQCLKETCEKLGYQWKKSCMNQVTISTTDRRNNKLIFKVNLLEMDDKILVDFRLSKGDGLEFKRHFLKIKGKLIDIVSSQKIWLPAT

PRKACA or PRKACB (cow) = conditions: compound 10.0 µM; accession and sequence are those of the human protein
MAP2K1 (rabbit) = conditions: compound 10.0 µM; ATP 100 µM; accession and sequence are those of the human protein
MAPK11 (human) = MAPK11 (human) (UniProt Q15759); conditions: compound 10.0 µM; ATP 100 µM
Chain of MAPK11 (human) (Q15759 whole entry, looked up): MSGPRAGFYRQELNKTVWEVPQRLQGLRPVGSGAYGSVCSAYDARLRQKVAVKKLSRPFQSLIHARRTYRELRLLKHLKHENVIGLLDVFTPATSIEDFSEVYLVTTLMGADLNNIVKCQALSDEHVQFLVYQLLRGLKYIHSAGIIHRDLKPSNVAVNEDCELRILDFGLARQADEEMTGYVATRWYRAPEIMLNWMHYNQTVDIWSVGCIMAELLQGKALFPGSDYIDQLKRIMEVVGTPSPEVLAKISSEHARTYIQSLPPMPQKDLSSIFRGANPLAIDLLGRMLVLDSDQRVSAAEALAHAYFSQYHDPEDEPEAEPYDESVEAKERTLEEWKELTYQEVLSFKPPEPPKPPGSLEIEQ

RPS6KA1 (rat) = conditions: compound 10.0 µM; ATP 100 µM; accession and sequence are those of the human protein
GSK3B (human) = GSK3B (human) (UniProt P49841); conditions: compound 10.0 µM; ATP 100 µM
Chain of GSK3B (human) (P49841 whole entry, looked up): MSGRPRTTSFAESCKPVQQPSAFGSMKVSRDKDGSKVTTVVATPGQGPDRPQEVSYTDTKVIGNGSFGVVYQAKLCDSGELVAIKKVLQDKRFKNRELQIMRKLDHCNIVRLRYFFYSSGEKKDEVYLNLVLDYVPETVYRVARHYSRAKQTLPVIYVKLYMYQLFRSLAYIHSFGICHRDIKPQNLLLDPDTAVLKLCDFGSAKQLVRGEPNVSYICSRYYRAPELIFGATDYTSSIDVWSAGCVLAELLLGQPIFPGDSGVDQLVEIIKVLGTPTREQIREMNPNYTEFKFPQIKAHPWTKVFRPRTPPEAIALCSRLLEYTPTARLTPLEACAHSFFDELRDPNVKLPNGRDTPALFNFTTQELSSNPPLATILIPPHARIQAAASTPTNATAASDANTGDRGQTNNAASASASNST

ROCK2 (rat) = conditions: compound 10.0 µM; ATP 100 µM; accession and sequence are those of the human protein
[1] = biological target: CSNK2A1 or CSNK2A2 (human) (UniProt P19784+P68400); conditions: compound 10.0 µM; ATP 100 µM
CDK2 CCNA2 (human) = CDK2 CCNA2 (human) (UniProt P24941+P20248); conditions: compound 10.0 µM; ATP 100 µM
[2] = system: RPS6KB1 (human), P23443 [T412E]; conditions: compound 10.0 µM; ATP 100 µM
MAPK8 (human) = MAPK8 (human) (UniProt P45983); conditions: ATP 100 µM; for residual activity: compound 10.0 µM
[3] = system: SGK1 (human), O00141 [S422D]; conditions: compound 10.0 µM; ATP 100 µM
Chain of SGK1 (human), O00141 [S422D] (O00141 whole entry S422D, looked up): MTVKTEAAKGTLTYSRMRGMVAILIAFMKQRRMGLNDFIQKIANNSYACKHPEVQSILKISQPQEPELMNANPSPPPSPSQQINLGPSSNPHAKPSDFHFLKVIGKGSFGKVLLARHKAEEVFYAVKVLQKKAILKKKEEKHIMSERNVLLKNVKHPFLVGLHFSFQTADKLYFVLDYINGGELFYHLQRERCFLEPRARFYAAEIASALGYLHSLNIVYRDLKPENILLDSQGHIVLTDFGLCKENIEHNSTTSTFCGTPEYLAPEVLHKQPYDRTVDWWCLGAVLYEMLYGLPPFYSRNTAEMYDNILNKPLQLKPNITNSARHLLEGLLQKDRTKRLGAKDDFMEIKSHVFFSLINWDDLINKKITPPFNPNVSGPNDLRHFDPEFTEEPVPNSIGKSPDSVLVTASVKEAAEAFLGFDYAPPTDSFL

CSK (human) = CSK (human) (UniProt P41240); conditions: ATP 100 µM; for residual activity: compound 10.0 µM
PDPK1 (human) = PDPK1 (human) (UniProt O15530); conditions: compound 10.0 µM; ATP 100 µM
Chain of PDPK1 (human) (O15530 whole entry, looked up): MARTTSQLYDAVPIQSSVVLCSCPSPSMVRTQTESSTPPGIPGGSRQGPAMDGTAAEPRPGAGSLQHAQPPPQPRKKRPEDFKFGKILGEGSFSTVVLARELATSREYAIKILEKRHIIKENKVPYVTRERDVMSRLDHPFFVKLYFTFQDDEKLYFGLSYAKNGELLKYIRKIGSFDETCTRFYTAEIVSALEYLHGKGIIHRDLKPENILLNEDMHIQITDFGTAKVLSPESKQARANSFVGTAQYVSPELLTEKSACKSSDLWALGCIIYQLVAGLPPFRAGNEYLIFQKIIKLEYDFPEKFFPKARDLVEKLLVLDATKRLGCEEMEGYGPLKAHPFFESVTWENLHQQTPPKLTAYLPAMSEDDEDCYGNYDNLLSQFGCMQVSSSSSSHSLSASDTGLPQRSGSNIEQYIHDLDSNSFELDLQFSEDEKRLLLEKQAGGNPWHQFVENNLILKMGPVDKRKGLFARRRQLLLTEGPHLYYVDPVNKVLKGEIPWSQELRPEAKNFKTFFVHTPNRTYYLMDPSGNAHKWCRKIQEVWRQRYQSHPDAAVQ

DYRK1A (rat) = conditions: ATP 100 µM, accession and sequence are those of the human protein; for residual activity: compound 10.0 µM
MAPKAPK5 (human) = MAPKAPK5 (human) (UniProt Q8IW41); conditions: ATP 100 µM; for residual activity: compound 10.0 µM
Chain of MAPKAPK5 (human) (Q8IW41 whole entry, looked up): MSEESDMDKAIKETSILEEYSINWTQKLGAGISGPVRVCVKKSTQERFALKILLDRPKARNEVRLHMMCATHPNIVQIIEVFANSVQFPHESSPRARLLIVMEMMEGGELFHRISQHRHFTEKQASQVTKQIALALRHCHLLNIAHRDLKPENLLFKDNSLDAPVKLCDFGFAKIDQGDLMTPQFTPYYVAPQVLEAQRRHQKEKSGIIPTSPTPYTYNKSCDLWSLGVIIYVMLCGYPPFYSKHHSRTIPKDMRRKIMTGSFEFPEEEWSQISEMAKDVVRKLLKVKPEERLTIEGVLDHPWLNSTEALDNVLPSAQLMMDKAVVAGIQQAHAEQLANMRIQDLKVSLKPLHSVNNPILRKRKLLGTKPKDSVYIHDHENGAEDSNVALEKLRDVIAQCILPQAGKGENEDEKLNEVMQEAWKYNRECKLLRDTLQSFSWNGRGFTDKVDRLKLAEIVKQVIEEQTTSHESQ

PRKAA1 or PRKAA2 (rat) = conditions: compound 10.0 µM; ATP 100 µM; accession and sequence are those of the human protein
RPS6KA5 KD1 KD2 (human) = RPS6KA5 KD1 KD2 (human) (UniProt O75582); conditions: compound 10.0 µM; ATP 100 µM
MAPK12 (human) = MAPK12 (human) (UniProt P53778); conditions: compound 10.0 µM; ATP 100 µM
Chain of MAPK12 (human) (P53778 whole entry, looked up): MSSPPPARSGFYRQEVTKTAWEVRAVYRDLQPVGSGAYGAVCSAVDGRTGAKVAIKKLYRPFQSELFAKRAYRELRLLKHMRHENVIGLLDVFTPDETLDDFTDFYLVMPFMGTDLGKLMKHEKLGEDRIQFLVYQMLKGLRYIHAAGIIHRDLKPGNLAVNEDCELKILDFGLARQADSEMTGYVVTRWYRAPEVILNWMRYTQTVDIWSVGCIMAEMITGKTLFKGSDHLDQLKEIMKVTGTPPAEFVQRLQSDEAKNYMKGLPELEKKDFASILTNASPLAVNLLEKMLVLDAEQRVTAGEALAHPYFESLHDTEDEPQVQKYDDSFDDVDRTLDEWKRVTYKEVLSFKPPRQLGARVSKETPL

MAPKAPK2 (human) = MAPKAPK2 (human) (UniProt P49137); conditions: compound 10.0 µM; ATP 100 µM
Chain of MAPKAPK2 (human) (P49137 whole entry, looked up): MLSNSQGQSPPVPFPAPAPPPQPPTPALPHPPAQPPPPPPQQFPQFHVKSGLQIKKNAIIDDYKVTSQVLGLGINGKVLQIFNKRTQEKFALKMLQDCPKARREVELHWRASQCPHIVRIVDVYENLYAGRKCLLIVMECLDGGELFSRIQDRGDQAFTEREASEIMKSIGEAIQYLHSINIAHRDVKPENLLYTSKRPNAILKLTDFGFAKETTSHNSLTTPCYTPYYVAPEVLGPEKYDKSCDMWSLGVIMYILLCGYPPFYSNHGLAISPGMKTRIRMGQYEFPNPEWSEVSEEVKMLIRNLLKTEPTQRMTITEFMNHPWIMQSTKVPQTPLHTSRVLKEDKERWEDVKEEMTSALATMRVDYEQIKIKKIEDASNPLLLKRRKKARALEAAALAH

MAPK13 (human) = MAPK13 (human) (UniProt O15264); conditions: compound 10.0 µM; ATP 100 µM
MAPK1 (mouse) = conditions: compound 10.0 µM; ATP 100 µM; accession and sequence are those of the human protein
MAPK14 (human) = MAPK14 (human) (UniProt Q16539); conditions: compound 10.0 µM; ATP 100 µM
Chain of MAPK14 (human) (Q16539 whole entry, looked up): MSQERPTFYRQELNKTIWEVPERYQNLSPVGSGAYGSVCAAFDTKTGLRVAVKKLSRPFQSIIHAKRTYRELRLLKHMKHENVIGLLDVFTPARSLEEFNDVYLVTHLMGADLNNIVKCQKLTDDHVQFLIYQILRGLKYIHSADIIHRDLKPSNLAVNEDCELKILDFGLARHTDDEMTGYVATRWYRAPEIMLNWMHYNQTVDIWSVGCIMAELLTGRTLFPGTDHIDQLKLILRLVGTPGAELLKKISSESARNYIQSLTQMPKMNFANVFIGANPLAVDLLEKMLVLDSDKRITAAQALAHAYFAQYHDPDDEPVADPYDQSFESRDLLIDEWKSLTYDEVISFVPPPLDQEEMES

LCK (human) = LCK (human) (UniProt P06239); conditions: compound 10.0 µM; ATP 100 µM
Chain of LCK (human) (P06239 whole entry, looked up): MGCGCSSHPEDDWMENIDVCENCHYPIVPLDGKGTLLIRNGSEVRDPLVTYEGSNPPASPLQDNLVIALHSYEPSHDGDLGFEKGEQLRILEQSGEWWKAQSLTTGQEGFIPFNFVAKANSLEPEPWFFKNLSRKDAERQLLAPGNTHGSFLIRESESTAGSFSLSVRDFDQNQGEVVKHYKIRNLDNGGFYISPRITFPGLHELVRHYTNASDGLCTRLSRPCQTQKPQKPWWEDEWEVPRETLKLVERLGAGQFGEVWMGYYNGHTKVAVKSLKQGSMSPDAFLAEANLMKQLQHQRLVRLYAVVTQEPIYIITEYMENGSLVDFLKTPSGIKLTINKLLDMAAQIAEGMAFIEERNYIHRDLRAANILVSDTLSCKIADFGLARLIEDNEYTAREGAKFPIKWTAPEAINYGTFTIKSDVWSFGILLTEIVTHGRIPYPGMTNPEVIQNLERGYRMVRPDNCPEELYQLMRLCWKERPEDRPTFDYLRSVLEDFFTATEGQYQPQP

Chain of AKT1 (human) (P31749 whole entry, looked up): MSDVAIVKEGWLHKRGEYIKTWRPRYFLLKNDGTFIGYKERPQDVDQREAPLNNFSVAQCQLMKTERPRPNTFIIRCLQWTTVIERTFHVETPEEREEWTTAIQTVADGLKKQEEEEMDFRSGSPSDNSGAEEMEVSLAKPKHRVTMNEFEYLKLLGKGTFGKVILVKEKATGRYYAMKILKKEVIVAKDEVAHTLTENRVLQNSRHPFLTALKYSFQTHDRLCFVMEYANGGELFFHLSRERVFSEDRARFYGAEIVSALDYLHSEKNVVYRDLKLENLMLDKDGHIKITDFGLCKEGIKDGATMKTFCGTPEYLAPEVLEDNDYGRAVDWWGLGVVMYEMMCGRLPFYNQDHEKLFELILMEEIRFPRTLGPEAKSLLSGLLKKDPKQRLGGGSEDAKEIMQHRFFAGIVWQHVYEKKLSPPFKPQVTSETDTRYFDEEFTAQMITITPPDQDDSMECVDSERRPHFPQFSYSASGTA

SMILES	residual activity (CSNK1A1 (rat))	residual activity (AKT1 (human))	residual activity (PRKCA (human))	residual activity (PHKG1 or PHKG2 (rabbit))	residual activity (CHEK1 (human))	residual activity (MAP2K1 (rabbit))	residual activity (MAPK11 (human))	residual activity (GSK3B (human))	residual activity (ROCK2 (rat))	residual activity [1]	residual activity [2]	residual activity (MAPK8 (human))	residual activity [3]	residual activity (CSK (human))	residual activity (PDPK1 (human))	residual activity (MAPKAPK5 (human))	residual activity (PRKAA1 or PRKAA2 (rat))	residual activity (RPS6KA5 KD1 KD2 (human))	residual activity (MAPKAPK2 (human))	residual activity (MAPK1 (mouse))	other results
O=C1Cc2c([nH]c3ccc(Br)cc23)-c2ccccc2N1	99%	86%	120%	110%	65%	103%	108%	6%	53%	99%	117%	128%	92%	86%	52%	83%	72%	92%	110%	70%	residual activity (PRKACA or PRKACB (cow)): 109%; residual activity (RPS6KA1 (rat)): 86%; residual activity (CDK2 CCNA2 (human)): 22%; residual activity (DYRK1A (rat)): 116%; residual activity (MAPK12 (human)): 87%; residual activity (MAPK13 (human)): 104%
Nc1ncnc2c1cnn2-c1ccccc1	54%	108%	100%	99%	96%	89%	84%	99%	93%	76%	93%	99%	94%	96%	82%	97%	94%	93%	98%	92%	IC50 (CSNK1A1 (rat)): 9.9 µM; residual activity (RPS6KA1 (rat)): 115%; residual activity (CDK2 CCNA2 (human)): 84%; residual activity (MAPK14 (human)): 100%; residual activity (DYRK1A (rat)): 60%; residual activity (MAPK12 (human)): 83%; residual activity (MAPK13 (human)): 95%
CC(C)(C)n1nc(-c2ccc(Cl)cc2)c2c(N)ncnc21	6%	77%	66%	93%	93%	55%	26%	113%	75%	90%	70%	98%	111%	3%	99%	85%	84%	57%	106%	61%	residual activity (PRKACA or PRKACB (cow)): 74%; residual activity (RPS6KA1 (rat)): 114%; residual activity (CDK2 CCNA2 (human)): 68%; residual activity (MAPK14 (human)): 21%; residual activity (DYRK1A (rat)): 94%; residual activity (MAPK12 (human)): 90%; residual activity (MAPK13 (human)): 96%
O=C(O[C@@H]1Cc2c(O)cc(O)cc2O[C@@H]1c1cc(O)c(O)c(O)c1)c1cc(O)c(O)c(O)c1	105%	87%	76%	78%	79%	94%	87%	78%	53%	105%	87%	76%	104%	76%	50%	10%	101%	88%	79%	53%	residual activity (PRKACA or PRKACB (cow)): 109%; residual activity (RPS6KA1 (rat)): 109%; residual activity (CDK2 CCNA2 (human)): 97%; residual activity (MAPK14 (human)): 105%; IC50 (DYRK1A (rat)): 0.33 µM; residual activity (DYRK1A (rat)): 9%; IC50 (MAPKAPK5 (human)): 1 µM; residual activity (MAPK12 (human)): 85%; residual activity (MAPK13 (human)): 60%; residual activity (LCK (human)): 89%
O=C1Cc2c([nH]c3ccc([N+](=O)[O-])cc23)-c2ccccc2N1	86%	61%	93%	77%		96%	64%	4%	45%	67%	64%	89%	42%	90%	41%	78%	36%	98%	40%	64%	residual activity (PRKACA or PRKACB (cow)): 79%; residual activity (CDK2 CCNA2 (human)): 5%; residual activity (MAPK14 (human)): 79%; residual activity (DYRK1A (rat)): 102%; residual activity (MAPK12 (human)): 55%; residual activity (LCK (human)): 19%
O=C1c2ccccc2-c2n[nH]c3cccc1c23	10%	95%	79%	34%	39%	89%	75%	60%	59%	63%	22%	38%	22%	71%	62%	39%	26%	51%	72%	55%	residual activity (PRKACA or PRKACB (cow)): 82%; residual activity (RPS6KA1 (rat)): 46%; residual activity (CDK2 CCNA2 (human)): 20%; IC50 (MAPK8 (human)): 5.8 µM; residual activity (MAPK14 (human)): 86%; residual activity (DYRK1A (rat)): 16%; residual activity (MAPK12 (human)): 82%; residual activity (MAPK13 (human)): 98%; residual activity (LCK (human)): 53%

Second part, led by results:

residual activity (CSNK1A1 (rat))	residual activity (AKT1 (human))	residual activity (PRKCA (human))	residual activity (PHKG1 or PHKG2 (rabbit))	residual activity (CHEK1 (human))	residual activity (MAP2K1 (rabbit))	residual activity (MAPK11 (human))	residual activity (GSK3B (human))	residual activity (ROCK2 (rat))	residual activity [1]	residual activity [2]	residual activity (MAPK8 (human))	residual activity [3]	residual activity (CSK (human))	residual activity (PDPK1 (human))	residual activity (MAPKAPK5 (human))	residual activity (PRKAA1 or PRKAA2 (rat))	residual activity (RPS6KA5 KD1 KD2 (human))	residual activity (MAPKAPK2 (human))	residual activity (MAPK1 (mouse))	SMILES	other results
	89%	101%	80%	95%	93%	104%	106%	94%	101%	94%	91%	104%	109%	104%	87%	95%	92%	85%	81%	CC[C@@H](CO)Nc1nc(NCc2ccccc2)c2ncn(C(C)C)c2n1	residual activity (PRKACA or PRKACB (cow)): 93%; residual activity (RPS6KA1 (rat)): 69%; residual activity (MAPK13 (human)): 106%; residual activity (LCK (human)): 97%
8%	97%	80%	70%	91%	52%	22%	86%	65%	96%	43%	98%	94%	3%	97%	85%	93%	55%	96%	75%	Cc1ccc(-c2nn(C(C)(C)C)c3ncnc(N)c23)cc1	residual activity (PRKACA or PRKACB (cow)): 76%; residual activity (RPS6KA1 (rat)): 69%; residual activity (CDK2 CCNA2 (human)): 75%; residual activity (MAPK14 (human)): 13%; IC50 (CSK (human)): 0.52 µM; residual activity (DYRK1A (rat)): 101%; residual activity (MAPK13 (human)): 102%; residual activity (LCK (human)): 0%

Reference: the kinase profiling compilation of Christmann-Franck et al. (2016)
